TGI and GI50 data for eight compounds are collected here from PubChem BioAssay (NCI).

Several values for one entry are separate records, joined by “and”; a condition that tells them apart may be missing. Equal entries are not always repeated.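 Method: 48-hour compound exposure of cells in 96-well plates, five concentrations, linear interpolation of endpoints. GI50 marks 50% less growth. TGI: total growth inhibition.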

Assay in all cases: DTP human tumour cell line panel, 48 h
For experiment [1], the system named is ACHN renal.
The subject of experiment [2] is HOP-62 NSCLC.
Experiment [3] relates to MOLT-4 leukemia.
Experiment [4] concerns NCI-H226 lung.
For experiment [5], the system named is PC-3 prostate.
Experiment [6] relates to SK-OV-3 ovarian.
Experiment [7] concerns SN12C renal.
The test system of experiment [8] is UO-31 renal.

With `COc1cc(OC)c(/C=C\c2ccnc3ccccc23)c(OC)c1`, the concentration for total growth inhibition (TGI) in experiment [1] turned out to be 17.5 µM; in experiment [2] it was 18.6 µM; in experiment [3], 11.8 µM; in experiment [4], 16.8 µM; in experiment [5] it was 23 µM; in experiment [6], 20.5 µM. Also, the values for the total growth inhibition concentration (TGI) in experiment [7] and in experiment [8] were 16.3 µM and 3.55 µM, respectively.

On to `CC(=O)c1cc(C(=O)c2ccc3c(c2)Sc2ccccc2N3)c2c(C)cc(C)cn12`, for which the GI50 in experiment [1] is 0.605 µM; in experiment [2] it was 0.394 µM; in experiment [3], 0.465 µM; in experiment [4], 0.73 µM; in experiment [5], 0.362 µM; in experiment [6], 0.342 µM. The GI50 in experiment [7] was 0.724 µM; in experiment [8], 0.635 µM. For the same compound, the concentration for total growth inhibition (TGI) in experiment [1] is greater than 40.1 µM; in experiment [2], greater than 63 µM; in experiment [3] it was greater than 100 µM; in experiment [4], greater than 100 µM; in experiment [5] it was greater than 100 µM; in experiment [7], greater than 100 µM. Moreover, in experiment [8], the concentration for total growth inhibition (TGI) is greater than 100 µM.

As for `COc1ccc2cc(-c3cc4c(oc3=O)-c3ccccc3OC4O)c(=O)oc2c1` (stereo not drawn), the GI50 in experiment [1] is 16.1 µM; in experiment [2] it was 20.3 µM; in experiment [3], 50 µM; in experiment [4] it was 16.1 µM; in experiment [5], 14.7 µM; in experiment [6], 17.1 µM. The GI50 in experiment [7] was 17.2 µM; in experiment [8], 17.5 µM. In addition, the total growth inhibition concentration (TGI) was 30.1 µM in experiment [1]; 35.4 µM in experiment [2]; greater than 100 µM in experiment [3]; 34 µM in experiment [4]; 28.3 µM in experiment [5]; 32.3 µM in experiment [6]. The total growth inhibition concentration (TGI) in experiment [7] came to 32.2 µM; in experiment [8], 33.4 µM.

Consider `Nc1nc(OCc2cc(Br)cs2)c2[nH]cnc2n1`, for which the GI50 in experiment [1] was 13.7 µM; in experiment [2] it was 31.4 µM; in experiment [3], 28.5 µM; in experiment [4], 24.6 µM; in experiment [5] it was 21.8 µM; in experiment [6], 21.1 µM. Also, the GI50 in experiment [7] was 29.6 µM; in experiment [8] it was 11.1 µM. The total growth inhibition concentration (TGI) in experiment [1] was 52 µM; in experiment [2] it was greater than 100 µM; in experiment [3], greater than 100 µM; in experiment [4], greater than 100 µM; in experiment [5], greater than 100 µM; in experiment [6], 57.8 µM. Further, the TGI in experiment [7] is greater than 100 µM; in experiment [8], 60.4 µM.

For the compound `NC(=O)c1ccc(NN=O)nc1`, the concentration for total growth inhibition (TGI) in experiment [1], in experiment [2], in experiment [3], in experiment [4], in experiment [5] and in experiment [6] was greater than 100 µM each time. Besides, the TGI in experiment [7] and in experiment [8] was greater than 100 µM each time.

Take `C[C@]12CC[C@H](O)C[C@H]1CC[C@@H]1[C@@H]2CC[C@]2(C)[C@@H](C3=CC(=O)OC3)[C@@H](O)C[C@]12O`: the TGI came out at 1.82 µM in experiment [1]; 2.48 µM in experiment [2]; 1.95 µM in experiment [3]; 9.8 µM in experiment [4]; 3.1 µM in experiment [5]; 6.73 µM in experiment [6]. Further, the total growth inhibition concentration (TGI) is 3.25 µM in experiment [7] and 2.26 µM in experiment [8].

Consider `CCOC(=O)n1cc(C2=C(c3cn(C)c4ccccc34)COC2=O)c2ccccc21`, for which the GI50 was 0.0795 µM in experiment [1]; 0.159 µM in experiment [2]; 0.38 µM in experiment [3]; 0.452 µM in experiment [4]; 0.162 µM in experiment [5]; 1.97 µM in experiment [6]. The concentration for 50% growth inhibition (GI50) was 0.306 µM in experiment [7] and 0.0781 µM in experiment [8]. Also, the concentration for total growth inhibition (TGI) in experiment [1] is greater than 100 µM; in experiment [2], 20.4 µM; in experiment [3] it was greater than 48.4 µM; in experiment [4] it was greater than 39 µM; in experiment [5], greater than 100 µM; in experiment [6], 56.8 µM. Besides, the TGI in experiment [7] and in experiment [8] was greater than 100 µM each time.

Regarding `C=CC(=O)NCc1cccc(Nc2ncc(Br)c(NCCCNC(=O)C3CCC3)n2)c1`, the GI50 in experiment [1] was 1.66 µM and 0.712 µM; in experiment [2], 0.448 µM and 0.152 µM; in experiment [3], 1.73 µM and 2.28 µM; in experiment [4], 0.999 µM and 0.448 µM; in experiment [5], 1.55 µM and 0.933 µM; in experiment [6], 0.9 µM. Also, the GI50 in experiment [7] is 0.621 µM and 0.45 µM; in experiment [8] it was 0.256 µM and 0.26 µM. Besides, the TGI is 12.5 µM and > 25 µM in experiment [1]; 9.77 µM and 4.33 µM in experiment [2]; 12.5 µM and > 25 µM in experiment [3]; 7.85 µM and 11.8 µM in experiment [4]; 12.5 µM and 7.04 µM in experiment [5]; 9.84 µM in experiment [6]. For the same compound, the TGI in experiment [7] was 12.5 µM and > 25 µM; in experiment [8], 1.11 µM and 0.916 µM.
